The target of assay [1] is T1, human IKKα (Homo sapiens, UniProt O15111).
T1 construct: FLAG (N)
T1 sequence (O15111 1-745): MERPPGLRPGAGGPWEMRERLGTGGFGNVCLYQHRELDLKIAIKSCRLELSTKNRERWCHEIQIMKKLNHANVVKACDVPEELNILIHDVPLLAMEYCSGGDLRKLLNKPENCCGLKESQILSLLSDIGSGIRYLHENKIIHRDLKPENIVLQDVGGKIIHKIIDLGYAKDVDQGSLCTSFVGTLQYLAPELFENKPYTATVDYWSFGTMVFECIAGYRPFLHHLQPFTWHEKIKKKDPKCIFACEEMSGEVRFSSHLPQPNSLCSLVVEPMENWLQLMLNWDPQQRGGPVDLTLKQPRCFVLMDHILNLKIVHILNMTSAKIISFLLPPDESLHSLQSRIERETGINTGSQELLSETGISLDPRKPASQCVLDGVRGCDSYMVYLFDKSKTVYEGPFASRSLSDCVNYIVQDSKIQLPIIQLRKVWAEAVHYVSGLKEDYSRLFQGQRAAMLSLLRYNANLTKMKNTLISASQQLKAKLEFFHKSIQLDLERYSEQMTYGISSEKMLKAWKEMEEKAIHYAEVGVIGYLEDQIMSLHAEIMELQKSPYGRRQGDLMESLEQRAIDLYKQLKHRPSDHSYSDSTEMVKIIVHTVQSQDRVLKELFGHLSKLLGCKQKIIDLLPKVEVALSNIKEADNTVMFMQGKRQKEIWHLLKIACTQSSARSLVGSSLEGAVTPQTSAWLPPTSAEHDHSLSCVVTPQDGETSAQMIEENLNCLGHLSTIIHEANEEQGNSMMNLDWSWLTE
In words: IKKα kinase inhibition assay (phosphorylation of IκBα substrate, 33P-ATP). It is filed as biochemical. The settings on record: flag-tagged human IKKα 3.6 μg/ml, GST-IκBα (1-54) 245 μg/ml, 250 nM ATP, 1 hour at 25° C. The method, then:
(§1) The inhibition of IKKα and IKKβ by the compounds of the present invention was determined with the following assay that measures the phosphorylation of the IκBα substrate by the respective kinases. The enzymes used in the assay were N-terminally flag-tagged versions of the human IKKβ or IKKα and the substrate was a GST fusion protein with IκBα (amino acids 1-54).
(§2) The reaction mixtures (60 μl) contained 20 mM HEPES pH 7.5, 10 mM MgCl2, 2 mM MnCl2, 100 mM NaCl, 100 μM Na3VO4, 20 mM β-glycerophosphate, 1 mM DTT, 2% DMSO, 250 nM ATP, 0.4 nM [^33P]ATP (specific activity, 3000 Ci/mmol), IκBα substrate, IKK enzyme and test compound. The reaction mixtures contained either 3.6 μg/ml IKKα and 245 μg/ml IκBα or 0.9 μg/ml IKKβ and 53 μg/ml IκBα.
(§3) Reactions were initiated by adding a solution of IκBα substrate and ATP to polypropylene plates containing IKK enzyme that was pre-incubated for 5 minutes with test compound. Then the reaction mixtures were incubated for 1 hour at 25° C., placed on ice and quenched by the addition of 150 μl 10% trichloroacetic acid and 5% disodium pyrophosphate. After mixing, the entire contents of the quenched reaction mixtures were transferred to a pre-wetted Packard UniFilter filtration plate, aspirated and washed 6 times with 250 μl of ddH2O using the Packard Filtermate Harvester. Filtration plates were then air dried, supplemented with 40 μl of Microscint 20 scintillation fluid and the ^33P-labeled reaction products were quantified using the Packard TopCount scintillation counter.
(§4) Compounds were tested in three-fold serial dilutions and inhibitor concentrations to achieve 50% inhibition of enzyme activity (i.e., IC50) were derived from dose-reponse curves using SAS software (SAS Institute, Cary N.C.). A non-linear regression analysis based on the Hill equation was applied to the percent inhibition versus concentration data. In all cases, compound concentrations were verified by HPLC.

The target in assay [2] is T2, human IKKβ (Homo sapiens, UniProt O14920).
T2 construct: FLAG (N)
T2 sequence (O14920 1-756): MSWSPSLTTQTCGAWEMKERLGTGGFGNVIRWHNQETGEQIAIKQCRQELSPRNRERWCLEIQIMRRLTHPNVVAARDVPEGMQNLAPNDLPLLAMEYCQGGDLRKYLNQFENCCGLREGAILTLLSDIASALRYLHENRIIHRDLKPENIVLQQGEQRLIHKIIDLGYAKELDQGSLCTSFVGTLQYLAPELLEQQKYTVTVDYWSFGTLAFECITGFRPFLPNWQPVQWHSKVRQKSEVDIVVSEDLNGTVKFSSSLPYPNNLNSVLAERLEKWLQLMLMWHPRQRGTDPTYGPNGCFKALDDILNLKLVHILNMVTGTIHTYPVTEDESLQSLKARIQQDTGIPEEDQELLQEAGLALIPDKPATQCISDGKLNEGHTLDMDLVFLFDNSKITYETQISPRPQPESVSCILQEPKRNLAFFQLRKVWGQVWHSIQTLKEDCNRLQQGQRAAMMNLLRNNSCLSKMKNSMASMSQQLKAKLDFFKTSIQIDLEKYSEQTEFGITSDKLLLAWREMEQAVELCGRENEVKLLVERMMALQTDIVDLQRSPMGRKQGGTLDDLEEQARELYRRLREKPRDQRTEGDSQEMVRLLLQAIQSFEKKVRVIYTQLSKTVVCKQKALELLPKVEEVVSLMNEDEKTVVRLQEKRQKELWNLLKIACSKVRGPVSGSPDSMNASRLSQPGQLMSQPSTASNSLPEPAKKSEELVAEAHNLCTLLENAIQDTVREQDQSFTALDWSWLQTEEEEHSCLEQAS
In words: IKKβ kinase inhibition assay (phosphorylation of IκBα substrate, 33P-ATP). The class given is biochemical. The note with it: flag-tagged human IKKβ 0.9 μg/ml, GST-IκBα (1-54) 53 μg/ml, 250 nM ATP, 1 hour at 25° C. On the procedure: as §1, §2, §3, §4

pIC50: −log10 of the molar value.

What is called pIC50 is the negative decadic logarithm of the IC50, by convention in mol/L. A high value points to a low IC50.

Turning to `NC(=O)c1sc2nc(N3CCC(N)CC3)cc(C(=O)Nc3ccccc3)c2c1N` [3-Amino-6-(4-amino-piperidin-1-yl)-thieno[2,3-b]pyridine-2,4-dicarboxylic acid 2-amide 4-phenylamide], the pIC50 was ≥ 5.00 in assay [1] and > 6.00 in assay [2]. Regarding `CCCc1cc(N2CCC(NCC(=O)N3CCC(O)CC3)CC2)nc2sc(C(N)=O)c(N)c12` [3-Amino-6-{4-[2-(4-hydroxy-piperidin-1-yl)-2-oxo-ethylamino]-piperidin-1-yl}-4-propyl-thieno[2,3-b] pyridine-2-carboxylic acid amide], the pIC50 in assay [1] was ≥ 5.00; in assay [2], > 6.00.

For the compound `CCCc1cc(N2CCC(NCC(O)c3ccc(-n4ccnc4)cc3)CC2)nc2sc(C(N)=O)c(N)c12` (stereo not shown) [3-Amino-6-{4-[2-hydroxy-2-(4-imidazol-1-yl-phenyl)-ethylamino]-piperidin-1-yl}-4-propyl-thieno[2,3-b] pyridine-2-carboxylic acid amide], the pIC50 in assay [1] is ≥ 5.00; in assay [2], > 6.00. For the compound `COC(=O)c1ccc(/C=C/c2cc(N3CCC(N)CC3)nc3sc(C(N)=O)c(N)c23)cc1` [4-{(E)-2-[3-Amino-6-(4-amino-piperidin-1-yl)-2-carbamoyl-thieno[2,3-b]pyridin-4-yl]-vinyl}-benzoic acid methyl ester], the negative-log IC50 (pIC50) in assay [1] was ≥ 5.00; in assay [2], > 6.00.

In the case of `NC(=O)c1sc2nc(N3CCC(N)CC3)cc(C(=O)Nc3ccncc3)c2c1N` [3-Amino-6-(4-amino-piperidin-1-yl)-thieno[2,3-b]pyridine-2,4-dicarboxylic acid 2-amide 4-pyridin-4-ylamide], the pIC50 in assay [1] was ≥ 5.00; in assay [2] it was > 6.00. Consider `NC(=O)c1sc2nc(N3CCC(N)CC3)cc(C(=O)Nc3cccnc3)c2c1N` [3-Amino-6-(4-amino-piperidin-1-yl)-thieno[2,3-b]pyridine-2,4-dicarboxylic acid 2-amide 4-pyridin-3-ylamide], for which the figures for the pIC50 in assay [1] and in assay [2] were ≥ 5.00 and > 6.00, respectively. Take `CCCc1cc(N2CCC(NCC(=O)O)CC2)nc2sc(C(N)=O)c(N)c12` [[1-(3-Amino-2-carbamoyl-4-propyl-thieno[2,3-b]pyridin-6-yl)-piperidin-4-ylamino]-acetic acid]: the pIC50 in assay [1] is ≥ 5.00; in assay [2], > 6.00. On the same counts, the results for `CNC(=O)c1cc(N2CCC(N)CC2)nc2sc(C(N)=O)c(N)c12` [3-Amino-6-(4-amino-piperidin-1-yl)-thieno[2,3-b]pyridine-2,4-dicarboxylic acid 2-amide 4-methylamide] are ≥ 5.00 and > 6.00.

`NC(=O)c1sc2nc(N3CCC(NCC(O)c4ccc(-c5cnccn5)cc4)CC3)cc(C(F)(F)F)c2c1N` (stereo not shown) [3-Amino-6-{4-[2-hydroxy-2-(4-pyrazin-2-yl-phenyl)-ethylamino]-piperidin-1-yl}-4-trifluoromethyl-thieno[2,3-b]pyridine-2-carboxylic acid amide]: the negative-log IC50 (pIC50) in assay [1] is ≥ 5.00; in assay [2], > 6.00. Take `CCCc1cc(N2CCC(N)(C#N)CC2)nc2sc(C(N)=O)c(N)c12` [3-Amino-6-(4-amino-4-cyano-piperidin-1-yl)-4-propyl-thieno[2,3-b] pyridine-2-carboxylic acid amide]: the pIC50 in assay [1] was ≥ 5.00. Regarding `CCCc1cc(N2CC[C@@H](N)C2)nc2sc(C(N)=O)c(N)c12` [3-Amino-6-((R)-3-amino-pyrrolidin-1-yl)-4-propyl-thieno[2,3-b] pyridine-2-carboxylic acid amide], the pIC50 in assay [1] is ≥ 5.00. Consider `NC(=O)c1sc2nc(N3CCC(N)CC3)cc(C(=O)NCCCN3CCOCC3)c2c1N` [33-Amino-6-(4-amino-piperidin-1-yl)-thieno[2,3-b]pyridine-2,4-dicarboxylic acid 2-amide 4-[(3-morpholin-4-yl-propyl)-amide]], for which the pIC50 in assay [1] is ≥ 5.00. As to `CC(C)Oc1ccnc2sc(C(N)=O)c(N)c12` [3-Amino-4-isopropoxy-thieno[2,3-b]pyridine-2-carboxylic acid amide], the pIC50 in assay [1] was ≥ 5.00. On the same count and under the same terms, to `CCCc1cc(N2CCC(NCC(O)c3ccc(NS(C)(=O)=O)cc3)CC2)nc2sc(C(N)=O)c(N)c12` (stereo not shown) [3-Amino-6-{4-[2-hydroxy-2-(4-methanesulfonylamino-phenyl)-ethylamino]-piperidin-1-yl}-4-propyl-thieno[2,3-b] pyridine-2-carboxylic acid amide] belongs ≥ 5.00; to `Cc1cc(/C=C/c2ccc(F)cc2)c2c(N)c(C(N)=O)sc2n1` [3-Amino-4-[(E)-2-(4-fluoro-phenyl)-vinyl]-6-methyl-thieno[2,3-b]pyridine-2-carboxylic acid amide], ≥ 5.00; to `Cc1cc(-c2ccc([N+](=O)[O-])cc2)c2c(N)c(C(N)=O)sc2n1` [3-Amino-6-methyl-4-(4-nitro-phenyl)-thieno[2,3-b]pyridine-2-carboxylic acid amide], ≥ 5.00. Still for that read-out and setting: as for `NC(=O)c1sc2nc(N3CCC(N)CC3)cc(/C=C/c3ccccc3)c2c1N` [3-Amino-6-(4-amino-piperidin-1-yl)-4-((E)-styryl)-thieno[2,3-b]pyridine-2-carboxylic acid amide], the figure is ≥ 5.00; as for `Cc1cc(/C=C/c2ccccc2)c2c(N)c(C(N)=O)sc2n1` [3-Amino-6-methyl-4-((E)-styryl)-thieno[2,3-b]pyridine-2-carboxylic acid amide], ≥ 5.00.

`Cc1cc(-c2ccc(S(C)(=O)=O)cc2)c2c(N)c(C(N)=O)sc2n1` [3-Amino-4-(4-methanesulfonyl-phenyl)-6-methyl-thieno[2,3-b]pyridine-2-carboxylic acid amide]: the pIC50 in assay [1] is ≥ 5.00. Same read-out and setting: as for `CCCc1cc(N2CCN(C)CC2)nc2sc(C(N)=O)c(N)c12` [3-Amino-6-(4-methyl-piperazin-1-yl)-4-propyl-thieno[2,3-b] pyridine-2-carboxylic acid amide], the figure is ≥ 5.00; as for `NC(=O)c1sc2nc(N3CCC(N)CC3)cc(-c3ccc([N+](=O)[O-])cc3)c2c1N` [3-Amino-6-(4-amino-piperidin-1-yl)-4-(4-nitro-phenyl)-thieno[2,3-b]pyridine-2-carboxylic acid amide], ≥ 5.00; as for `CSc1cc(N2CCC(N)CC2)nc2sc(C(N)=O)c(N)c12` [3-Amino-6-(4-amino-piperidin-1-yl)-4-methylsulfanyl-thieno[2,3-b]pyridine-2-carboxylic acid amide], ≥ 5.00.

Source of the values: patent publication US6974870B2, “Substituted 3-amino-thieno [2,3-b]pyridine-2-carboxylic acid amide compounds and processes for preparing and their uses” (Boehringer Ingelheim Phamaceuticals, Inc., priority 2002, dated 2005).
